From patent US20080103105A1, “HMG CoA REDUCTASE MEDIATED MODULATION OF NEUROGENESIS” (BrainCells, Inc., priority 2006, published 2008)
Where two headings read alike, the source gives them in different places.

What was measured:
[1] = test system: Group I and Group III receptors; settings: at sub-mM concentrations; cited from earlier work
mGluR2 = mGluR2 (Homo sapiens, UniProt Q14416); settings: read-out: IC50 against mGluR2; cited from earlier work
mGluR3 = mGluR3 (Homo sapiens, UniProt Q14832); settings: read-out: IC50 against mGluR3; cited from earlier work
mGluR3, sequence (Q14832 23-879): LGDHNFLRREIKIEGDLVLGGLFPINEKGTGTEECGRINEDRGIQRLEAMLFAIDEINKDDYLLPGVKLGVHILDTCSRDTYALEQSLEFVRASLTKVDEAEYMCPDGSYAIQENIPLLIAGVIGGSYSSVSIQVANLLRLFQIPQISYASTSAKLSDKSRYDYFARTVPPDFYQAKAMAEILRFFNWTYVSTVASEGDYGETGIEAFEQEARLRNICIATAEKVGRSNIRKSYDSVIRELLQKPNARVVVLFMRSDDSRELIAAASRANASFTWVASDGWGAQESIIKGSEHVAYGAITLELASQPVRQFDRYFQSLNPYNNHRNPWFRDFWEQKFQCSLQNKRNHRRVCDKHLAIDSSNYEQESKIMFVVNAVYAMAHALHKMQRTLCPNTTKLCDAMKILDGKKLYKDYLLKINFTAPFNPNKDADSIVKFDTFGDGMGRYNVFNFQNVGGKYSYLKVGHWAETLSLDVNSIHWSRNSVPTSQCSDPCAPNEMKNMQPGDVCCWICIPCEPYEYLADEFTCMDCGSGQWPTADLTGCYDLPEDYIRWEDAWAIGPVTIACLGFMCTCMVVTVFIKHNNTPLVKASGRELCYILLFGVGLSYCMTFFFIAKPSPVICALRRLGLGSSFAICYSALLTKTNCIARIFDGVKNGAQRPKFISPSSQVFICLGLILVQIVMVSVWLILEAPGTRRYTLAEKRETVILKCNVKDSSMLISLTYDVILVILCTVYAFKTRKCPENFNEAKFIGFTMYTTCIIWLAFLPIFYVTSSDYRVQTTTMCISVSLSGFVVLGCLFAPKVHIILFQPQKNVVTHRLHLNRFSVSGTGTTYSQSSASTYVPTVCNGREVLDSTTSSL

human mGlu2 = human mGlu2 (Homo sapiens, UniProt Q14416); settings: low nanomolar range; read-out: EC50 against human mGlu2 receptors in vitro; cited from earlier work
human mGlu2, sequence (Q14416 19-872): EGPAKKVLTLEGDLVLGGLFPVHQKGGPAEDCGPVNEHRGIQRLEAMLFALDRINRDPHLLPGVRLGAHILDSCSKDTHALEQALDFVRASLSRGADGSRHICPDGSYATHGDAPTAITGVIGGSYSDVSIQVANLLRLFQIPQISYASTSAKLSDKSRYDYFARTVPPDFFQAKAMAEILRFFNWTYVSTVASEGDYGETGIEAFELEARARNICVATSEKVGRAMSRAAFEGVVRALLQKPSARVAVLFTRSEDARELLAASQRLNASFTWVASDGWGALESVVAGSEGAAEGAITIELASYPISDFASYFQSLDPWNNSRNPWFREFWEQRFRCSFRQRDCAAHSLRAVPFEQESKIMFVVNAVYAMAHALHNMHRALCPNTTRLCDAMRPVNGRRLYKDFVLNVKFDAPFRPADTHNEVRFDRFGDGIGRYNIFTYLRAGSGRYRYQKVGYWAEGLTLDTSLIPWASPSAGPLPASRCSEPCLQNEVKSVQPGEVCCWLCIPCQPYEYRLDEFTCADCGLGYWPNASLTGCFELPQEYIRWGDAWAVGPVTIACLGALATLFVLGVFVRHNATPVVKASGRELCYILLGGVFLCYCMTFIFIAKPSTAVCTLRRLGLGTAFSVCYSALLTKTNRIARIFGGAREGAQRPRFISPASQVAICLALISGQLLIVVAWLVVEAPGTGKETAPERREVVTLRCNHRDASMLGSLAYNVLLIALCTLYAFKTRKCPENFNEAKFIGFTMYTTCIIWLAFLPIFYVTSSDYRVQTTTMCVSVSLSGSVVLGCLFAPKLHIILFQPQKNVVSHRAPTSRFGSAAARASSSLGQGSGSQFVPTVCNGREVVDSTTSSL

human mGlu3 = human mGlu3 (Homo sapiens, UniProt Q14832); settings: low nanomolar range; read-out: EC50 against human mGlu3 receptors in vitro; cited from earlier work
human mGlu3, sequence (Q14832 23-879): as the sequence (Q14832 23-879) above

[2] = test system: KA, AMPA, and NMDA iGlu receptors; settings: cited from earlier work
[3] = test system: Human neural stem cells (hNSCs); assay: Neuronal differentiation of human neural stem cells (TUJ-1 staining); format: cell-based; settings: for EC50: agent alone
Source text: In one non-limiting example neurogenesis, a neurogenic response, and neurodifferentiation are all measured in an in vitro assay as follows. Human neural stem cells (hNSCs) are isolated and grown in monolayer culture, plated, treated with varying concentrations of a first neurogenic agent, or a combination of a first neurogenic agent with one or more additional neurogenic agents (test compound), and stained with TUJ-1 antibody to identify neurons and/or GFAP to identify astrocytes, as described in PCT Application No. US06/026677. Mitogen-free test media with a positive control is used for neuronal differentiation, and basal media without growth factors serves as a negative control. Neurogenesis is determined, for example, by measuring the proliferation and/or differentiation of the hNSCs in the presence of varying concentrations of test compound compared to the absence of the test compound (negative control). A neurogenic response is measured, for example, in a similar manner to neurogenesis, except that astrogenesis is also measured and the ratio of neurogenesis to astrogenesis is determined to measure the neurogenic response. Neurodifferentiation is measured, for example, by detecting neurodifferentiation specific expression markers which methods are known in the art.
(§1) Human neural stem cells (hNSCs) were isolated and grown in monolayer culture, plated, treated with varying concentrations of atorvastatin (test compound), and stained with TUJ-1 antibody, as described in U.S. Provisional Application No. 60/697,905 (U.S. Patent Publication 2007/0015138). Mitogen-free test media with a positive control for neuronal differentiation was used along with basal media without growth factors as a negative control.
as §1, with “in the presence or absence of buspirone,” for “(test compound),”, “antibody for the detection of neuronal differentiation or GFAP antibody for the detection of astrocyte differentiation,” for “antibody,”
as §1, with “in the presence or absence of ribavirin,” for “(test compound),”, “antibody for the detection of neuronal differentiation or GFAP antibody for the detection of astrocyte differentiation,” for “antibody,”
as §1, with “in the presence or absence of tacrine,” for “(test compound),”, “antibody for the detection of neuronal differentiation or GFAP antibody for the detection of astrocyte differentiation,” for “antibody,”
Human neural stem cells (hNSCs) were isolated and grown in monolayer culture, plated, treated with varying concentrations of atorvastatin in the presence or absence of azakenpaullone, and stained with TUJ-1 antibody for the detection of neuronal differentiation or GFAP antibody for the detection of astrocyte differentiation, as described in U.S. Provisional Application No. 60/697,905 (U.S. Patent Publication 2007/0015138). […]

[4] = test system: BrdU positive cells within the granule cell layer of the dentate gyrus
Procedure: Male F344 rats were dosed 1× per day for 28-days with vehicle (n=12 per dose group, p.o.), 5.0 mg/kg fluoxetine (n=12 per dose group, p.o.), 15.0 mg/kg fluoxetine (n=12 per dose group, p.o.), 10.0 mg/kg atorvastatin (n=12 per dose group, p.o.) or the combination of fluoxetine (5.0 mg/kg, p.o.)+atorvastatin (10.0 mg/kg, p.o.).
Male F344 rats were dosed 1× per day for 21-days with 0 (vehicle only), 5.0 mg/kg fluoxetine (n=12 per dose group, p.o.), 15.0 mg/kg fluoxetine (n=12 per dose group, p.o.), 10.0 mg/kg atorvastatin (n=12 per dose group, p.o.) or the combination of fluoxetine (5.0 mg/kg, p.o.)+atorvastatin (10.0 mg/kg, p.o.). BrdU was administered once daily between days 9 and 14 (100 mg/kg/day, i.p., n=12 per dose group). […] Data are presented as percent change in BrdU positive cells per cubic mm dentate gyrus. […] Data are presented as the percentage of cells colabeled for BrdU and the mature neuronal marker NeuN within the dentate gyrus.

[5] = Homo sapiens, Neural stem cell, maximum fixed to 120% for all conditions, read-out: EC50, neuronal differentiation, agent alone, maximum percent of positive control fixed to a common 120%
[6] = Homo sapiens, Neural stem cell, percentage of neuronal positive control, basal media values subtracted, read-out: EC50, neuronal differentiation, agent used alone

mGluR2, sequence (Q14416 19-872): as the sequence (Q14416 19-872) above

NC1(C(=O)O)CCc2cc(P(=O)(O)O)ccc21 (racemic) [APICA, (RS)-1-amino-5-phosphonoindan-1-carboxylic acid]
activity against Group I or Group III receptors [1]: no appreciable activity | IC50 (mGluR2): ~30 µM | IC50 (mGluR3): ~30 µM

NC1(C(=O)O)COC2C(C(=O)O)C21 (single isomer, unassigned; (-)) [LY379268, (−)-2-Oxa-4-aminobicyclohexane-4,6-dicarboxylic acid]
EC50 (human mGlu2): < 0.01 µM | EC50 (human mGlu3): < 0.01 µM

N[C@](CC1c2ccccc2Oc2ccccc21)(C(=O)O)[C@H]1C[C@@H]1C(=O)O [LY341495, (2S)-2-amino-2-(1S,2S-2-carboxycycloprop-1-yl)-3-(xanth-9-yl) propanoic acid]
activity against KA, AMPA, and NMDA iGlu receptors [2]: substantially inactive

Clc1ccc2c(c1)N=C(N1CCNCC1)c1ccccc1N2 [N-desmethylclozapine]
neurogenic activity in assays as disclosed herein [3]: highly neurogenic

CC(C)c1c(C(=O)Nc2ccccc2)c(-c2ccccc2)c(-c2ccc(F)cc2)n1CC[C@@H](O)C[C@@H](O)CC(=O)O [atorvastatin]
EC50 [3, 5]: 0.004 µM | EC50 ([3]; percentage of neuronal positive control, basal media values subtracted, read-out: EC50, neuronal differentiation, agent used alone): 0.0031 µM | neuronal differentiation, result in words ([3]; percent of neuronal positive control, combination relative to either agent alone): promoted neuronal differentiation | number of BrdU positive cells (percent change per cubic mm dentate gyrus) ([4]; 10.0 mg/kg atorvastatin p.o. 1× per day): significantly increased | number of new neurons within the granule cell layer of the dentate gyrus ([4]; atorvastatin 10.0 mg/kg p.o. alone or with fluoxetine 5.0 mg/kg p.o., 1× per day): significant increase

O=C1Cc2c([nH]c3ccc(Br)cc23)-c2ncccc2N1 [azakenpaullone]
EC50 [3, 5]: 0.33 µM | EC50 [3, 6]: 1.1 µM | maximum percent of positive control neuronal differentiation ([3]; addition of azakenpaullone): greater than 100%

O=C1CC2(CCCC2)CC(=O)N1CCCCN1CCN(c2ncccn2)CC1 [buspirone]
EC50 [3, 6]: 5.8 µM

Nc1nc2ncc(CNc3ccc(C(=O)N[C@@H](CCC(=O)O)C(=O)O)cc3)nc2c(=O)[nH]1 [folic acid]
EC50 [3, 6]: 4.8 µM

NC(=O)c1ncn([C@@H]2O[C@H](CO)[C@@H](O)[C@H]2O)n1 [ribavirin]
EC50 [3, 6]: 3.8 µM

NCCc1c[nH]c2ccc(O)cc12 [serotonin]
EC50 [3, 6]: 4.5 µM

Nc1c2c(nc3ccccc13)CCCC2 [tacrine]
EC50 [3, 6]: 7.4 µM
